Laboratory results as given in PubChem BioAssay (NCI).
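Following 48 hours of exposure in 96-well plates, responses at five concentrations were used to interpolate endpoints linearly. Here, GI50 denotes the concentration required for 50% inhibition of growth. TGI denotes the concentration required for complete inhibition of growth.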

How the values were obtained:
Assay in all cases: inhibition of tumour cell growth, NCI panel, 48 h
HCC-2998 colon = test system: HCC-2998 colon
HCT-116 colon = test system: HCT-116 colon
HCT-15 colon = test system: HCT-15 colon
HOP-92 NSCLC = test system: HOP-92 NSCLC
NCI-H226 lung = test system: NCI-H226 lung
NCI-H522 lung = test system: NCI-H522 lung
SF-539 CNS = test system: SF-539 CNS
SK-MEL-5 melanoma = test system: SK-MEL-5 melanoma
SW-620 colon = test system: SW-620 colon
COLO 205 colon = test system: COLO 205 colon

Row | Compound | TGI (HCC-2998 colon) | TGI (HCT-116 colon) | TGI (HCT-15 colon) | TGI (HOP-92 NSCLC) | TGI (NCI-H226 lung) | TGI (NCI-H522 lung) | TGI (SF-539 CNS) | TGI (SK-MEL-5 melanoma) | TGI (SW-620 colon) | TGI (COLO 205 colon) | GI50 (COLO 205 colon) | GI50 (HCC-2998 colon) | GI50 (HCT-116 colon) | GI50 (HCT-15 colon) | GI50 (HOP-92 NSCLC) | GI50 (NCI-H226 lung) | GI50 (SW-620 colon) | GI50 (NCI-H522 lung) | GI50 (SK-MEL-5 melanoma) | GI50 (SF-539 CNS)
1 | COC(=O)C(=O)C(C(=O)C(=O)Nc1ccccc1C(C)=O)c1nc2ccc(C(=O)c3ccccc3)cc2[nH]c1=O (stereo unspecified) | > 100 µM | > 100 µM | > 100 µM | > 100 µM | > 100 µM | > 100 µM | > 100 µM | > 100 µM |  |  |  |  |  |  |  |  |  |  |  | 
2 | COC(=O)C(=O)C(C#N)c1ccc(CC#N)cc1 (stereo unspecified) |  | > 100 µM | > 100 µM | > 100 µM | > 100 µM | > 100 µM | > 100 µM |  | > 100 µM |  |  |  |  |  |  |  |  |  |  | 
3 | CCCN1CN(C(C(=O)N[C@@H]2C(=O)N3C(C(=O)O)=C(C)CSC23)c2ccc(O)cc2)CSC1=S (stereo partly specified) |  | > 100 µM | > 100 µM | > 100 µM |  | > 100 µM | > 100 µM | > 100 µM | 30.8 µM | > 100 µM |  |  |  |  |  |  |  |  |  | 
4 | CCCC(C)C[C@@H](C)CC(C)/C=C(\C)c1oc(=O)c(C)c(O)c1C (stereo partly specified) (tested in a mixture with another compound) | 25.5 µM | 32.3 µM |  |  | 30.4 µM | 31.1 µM | 30.1 µM |  | 35.1 µM | 46 µM |  |  |  |  |  |  |  |  |  | 
5 | CC/C(=C(/CC)c1ccc(O)cc1)c1ccc([O-])cc1.CC/C(=C(/CC)c1ccc(O)cc1)c1ccc([O-])cc1.O=C([CH-]C(=O)c1ccccc1)c1ccccc1.O=C([CH-]C(=O)c1ccccc1)c1ccccc1.[Ti+4] | 24.6 µM | 17.3 µM | 32.3 µM | 27.2 µM | 45.5 µM |  |  |  | 19.1 µM | > 100 µM | 33.8 µM | 12.2 µM | 5.22 µM | 6.8 µM | 14.2 µM | 23.6 µM | 6.35 µM |  |  | 
6 | O=C(O)CC12C3C4C5C3C1C5C42 (stereo unspecified) | > 100 µM | > 100 µM | > 100 µM |  |  | > 100 µM | > 100 µM | > 100 µM | > 100 µM | > 100 µM |  |  |  |  |  |  |  |  |  | 
7 | COc1ccc(C2=C(c3ccc(OC)c(OC)c3)C(=O)OC2)cc1 |  | > 100 µM | 28.6 µM | 32.6 µM | 2.92 µM |  | > 24.2 µM | 2.57 µM | > 100 µM | > 68.1 µM | < 0.0238 µM |  | < 0.01 µM | < 0.01 µM | 3.48 µM | 0.0169 µM |  | < 0.0406 µM | < 0.05 µM | 
8 | COC1OC(C)C(O)CC1OS(=O)(=O)c1ccc(C)cc1 (stereo unspecified) |  | > 100 µM | > 100 µM | > 100 µM | > 100 µM | > 100 µM | > 100 µM | > 100 µM | > 100 µM | > 100 µM |  |  |  |  |  |  |  |  |  | 
9 | CCCCc1ccc(-n2c3nc(=O)n(C)c(=O)c-3nc3ccccc32)cc1 | 16.3 µM | 25.6 µM | 18.3 µM |  | 26.6 µM | 20.2 µM | 27.1 µM | 3.01 µM | 19.8 µM | 13 µM |  |  |  |  |  |  |  |  |  | 
10 | Cc1ccc(-c2nc(N)nc3c2nnn3Cc2cccc(CO[C@H]3CCOC3)n2)o1 | > 100 µM | > 100 µM | > 100 µM | > 100 µM | > 100 µM | > 100 µM | > 100 µM | > 100 µM | > 100 µM |  |  | > 100 µM | > 100 µM | > 100 µM | > 100 µM | > 100 µM | > 100 µM | > 100 µM | 53.6 µM | > 100 µM
11 | Cc1ccc(NC(=O)CC(=O)n2nc(-c3ccccc3)c(N=Nc3ccccc3Cl)c2-c2ccccc2)cc1 | > 100 µM | > 100 µM | > 100 µM | 63 µM |  | > 100 µM | > 100 µM | > 100 µM | > 100 µM | > 100 µM | > 100 µM | > 100 µM |  | > 100 µM |  |  |  |  |  | 
12 | Cc1ccc(NC(=O)CCC/C(CC(=O)c2ccc(Br)cc2)=N/NC(=O)CC#N)cc1 | > 100 µM | > 100 µM |  | > 100 µM | > 100 µM |  |  | > 100 µM | > 100 µM | > 100 µM |  |  |  |  |  |  |  |  |  | 
13 | O=C(Nc1ccc(F)cc1)C(=O)C(C1OC(=O)c2ccccc21)[N+](=O)[O-] (stereo unspecified) | > 100 µM | > 100 µM | > 100 µM | > 100 µM | > 100 µM |  | > 100 µM | > 100 µM | > 100 µM | > 100 µM |  |  |  |  |  |  |  |  |  | 
14 | Cc1nc2cc(N)c(F)cc2[nH]1 |  |  |  | > 100 µM | > 100 µM | > 100 µM | > 100 µM | > 100 µM | > 100 µM | > 100 µM |  |  |  |  |  |  |  |  |  | 
15 | Cc1ccc(/C=C/C(=O)c2sc(-c3cccnc3)nc2C)cc1 | > 100 µM |  | > 100 µM | > 100 µM | > 100 µM | > 100 µM | > 100 µM | > 100 µM | > 100 µM | > 100 µM |  |  |  |  |  |  |  |  |  | 
16 | CC1(C)CCC[C@@]2(C)C1CC[C@H]1CC(O)C3(C)CCC12C3 (stereo partly specified) | 34.1 µM | 31 µM | 32.9 µM | 30.5 µM | 34.3 µM | 30.3 µM | 33 µM | 31.4 µM | 30.8 µM |  |  |  |  |  |  |  |  |  |  | 
17 | Nc1ncn(C2C=C(CO)C(O)C2O)c(=O)n1 (stereo unspecified) | > 100 µM | > 100 µM | > 100 µM |  | > 100 µM | > 100 µM | > 100 µM | > 100 µM | > 100 µM | 74.2 µM |  |  |  |  |  |  |  |  |  | 
18 | O=C([CH-]C(=O)c1ccccc1)c1ccccc1.O=C([CH-]C(=O)c1ccccc1)c1ccccc1.O=C([CH-]C(=O)c1ccccc1)c1ccccc1.[OH3+].[Y+3] | 25.8 µM | 18.3 µM | 22.8 µM | 25.3 µM |  | 11.1 µM | 43.1 µM | 13.9 µM | 22.8 µM | 30.9 µM | 13.2 µM | 10.3 µM | 4.18 µM | 4.96 µM | 10 µM |  | 5.14 µM | 2.58 µM | 3.72 µM | 9.27 µM
19 | O=c1[nH]c2c3ccccc3ccc2c2cc3c(cc12)OCO3 | > 100 µM | > 100 µM | > 100 µM |  | > 100 µM | > 100 µM | > 100 µM | > 100 µM | > 100 µM | > 100 µM |  |  |  |  |  |  |  |  |  | 
20 | Cc1cc(C)nc(NS(=O)(=O)c2ccc(Nc3c4ccc(Cl)cc4nc4c(C(=O)Nc5ccc(S(=O)(=O)N=C(N)N)cc5)cccc34)cc2)n1 | > 100 µM | > 100 µM | > 100 µM |  |  | > 100 µM | > 100 µM |  |  |  |  |  |  |  |  |  |  |  |  | 
21 | COc1ccc2c(c1)CCc1[nH]c3ccccc3c1CCCC2 | > 10 µM | > 10 µM | > 10 µM | > 10 µM |  | > 10 µM | > 10 µM | > 10 µM | > 10 µM | > 10 µM |  |  |  |  |  |  |  |  |  | 
